Assay results as given in US9023767B2, “γ-Secretase substrates and methods of use” (Memorial Sloan-Kettering Cancer Center, priority 2009, dated 2015).
Like-named read-outs stand apart in the source and are kept apart here.

Legend:
γ-secretase [1] = molecular target: T1, γ-secretase (Homo sapiens (Human), UniProt P49768); assay: In vitro γ-secretase assay, solubilized γ-secretase, ECL; format: biochemical; conditions: Sb4 substrate
Description: The γ-secretase cleaved Aβ product derived from C100Flag substrate was detected by a pair of antibodies (biotinylated 4G8 and ruthenylated G2-10*) while Sb4 cleaved product was detected by ruthenylated G2-10* alone (FIG. 10a) and quantified using electrochemiluminescence (ECL) technology.
An in vitro assay was based on the one previously reported by Li et al. (2000), except we utilized Sb4 substrate that eliminated the need for biotinylated antibody. […] All assays incorporate ruthenylated G2-10* antibody to detect 40-site cleavage of APP or recombinant Sb4 substrate and quantitated activity by measuring ECL.

A20 mouse lymphoma cells = assay: Lymphoma cell proliferation assay, [3H]thymidine incorporation; format: cell-based; conditions: 48 hours
Method: For a lymphoma cell proliferation assay, A20 mouse lymphoma cells were seeded in a 96-well plate at a concentration of 5×10^5 cells/ml in 100 μl RPMI media containing 2% fetal bovine serum. An additional 100 μl of media containing DMSO or γ-secretase inhibitor was added and incubated for 48 hours at 37° C. After this incubation, the cells were incubated for 5 hours with 2 μCi/ml [^3H]thymidine at 37° C. Proliferative response was then evaluated by harvesting the tritiated DNA from cells using a Skatron cell harvester and proliferation assessed as a function of [^3H]thymidine incorporation measured on a β-counter.

γ-secretase [2] = molecular target: T1, γ-secretase; assay: Exo-cell γ-secretase assay, HeLa cells, Sb4 substrate; format: cell-based
Method: Therefore, HeLa cells were first incubated with Sb4 substrate, as well as CHAPSO detergent as depicted in FIG. 14c. Cells were seeded at their indicated concentration in 96-well plates and allowed to attach overnight. The next day, media was removed and cells were washed once with PBS. Fresh media was then added containing 0.25% CHAPSO detergent, Sb4 substrate to a final concentration of 1 μM, and 1% DMSO or γ-secretase inhibitor. This was incubated for 2.5 hours at 37° C. Media was removed and cell debris was pelleted from this media for 5 min. at 3,500 rpm. Supernatant was then added to ruthenylated G2-10* antibody that recognizes cleaved product, but not uncleaved substrate. This was incubated for an additional 2 hours at room temperature. Finally, magnetic streptavidin beads were added to a final concentration of 80 μg/ml and incubated for 30 min. at room temperature. Assay buffer was added to the samples and γ-secretase-mediated cleavage of substrate was monitored using electrochemiluminescence (ECL) (Li et al., 2000). (FIG. 14c).
(§1) The potency of two structurally different GSIs was assayed in four unique γ-secretase activity assays. IC50 values were determined from the dose response curves using a non-linear regression analysis in the Prism software. An in vitro assay was based on the one previously reported by Li et al. (2000), except we utilized Sb4 substrate that eliminated the need for biotinylated antibody. The cell-based activity assay used N2A mouse neuroblastoma cells stably over-expressing APP and a biotinylated 4G8 antibody that binds the C-terminus of the amyloid beta peptide. The exo-cell assay incubated HeLa cells simultaneously with GSI, Sb4 substrate as well as 0.25% CHAPSO detergent prior to detecting substrate cleavage. Finally, the extended exo-cell assay first incubated HeLa cells with GSI for 24 hrs. Subsequently, the cells were washed 1× in PBS and then incubated with Sb4 substrate and CHAPSO detergent. The assay was then carried out exactly as described for the original exo-cell method. All assays incorporate ruthenylated G2-10* antibody to detect 40-site cleavage of APP or recombinant Sb4 substrate and quantitated activity by measuring ECL. The latter assays were performed as previously described (Li et al., 2000). In the in vitro assay, recombinant Sb4 substrate was incubated for 2.5 hours at 37° C. in pH 7.0 PIPES buffer in the presence of 0.25% CHAPSO detergent and solubilized γ-secretase at a final concentration of 40 ng/ul. The detection of cleaved substrate was determined using ruthenylated G2-10* antibody. Since the Sb4 substrate is biotinylated additional 6E10 biotinylated antibody used in earlier assays is not required. In the cell-based assay, N2A mouse neuroblastoma cells that stably overexpress amyloid precursor protein were incubated with γ-secretase inhibitors in a final concentration of 1% DMSO for 24 hrs. Following incubation, the supernatant was removed from the cells and assayed for Aβ40, the cleaved APP product, using ruthenylated G2-10* antibody as well as biotinylated 4G8 antibody.

γ-secretase [3] = molecular target: γ-secretase (Homo sapiens (Human), UniProt P49768+Q92542); assay: Photoaffinity labeling of γ-secretase in HeLa membrane by Aβ17-23BPA20-biotin; format: binding; conditions: inhibitor at 2 μM
Method: FIG. 4. […] Various concentrations of inhibitor were incubated with APP substrate (S4) or Notch peptide substrate containing the C-terminal biotinylated transmembrane domain of Notch1 and HeLa cell membrane in the presence of 0.25% CHAPSO. Aβ40 was detected by G2-10 antibody. The cleaved Notch product was detected by Val1744 antibody that specifically recognizes the cleaved product between Gly1743 and Val1744. Activities are expressed as percentage relative to reading that was produced in DMSO control. […] Various concentrations of S4 substrate were incubated with HeLa membrane in fixed concentrations of inhibitor as indicated. The double reciprocal velocity (1/v) and substrate concentrations (1/S) are plotted to determine the type of inhibition. […] Assays were conducted as described in FIG. 4A. […] The labeled samples were solubilized with RIPA buffer. Biotinylated proteins were captured with streptavidin-agarose and probed by immunoblotting using antibodies against biotin, PS1-CTF, PS1-NTF, Nicastrin, PEN-2 and APH-1a. HeLa cell membrane proteins were directly loaded onto lanes indicated by an arrow in the PEN-2 and APH-1a blots as positive controls. […] Upper panel: PS1-NTF; Lower panel: PS1-CTF.
The labeled proteins were eluted with 2×SDS sample buffer and analyzed with Western blotting using antibodies against the components of γ-secretase complex. Protein concentration was determined with the Dc protein assay kit (Bio-Rad)
After the photolyzed membranes were solubilized, biotinylated proteins were captured, eluted and analyzed by western blotting with antibodies against biotin, PS1, nicastrin, PEN-2 and APH-1.

γ-secretase [4] = molecular target: γ-secretase (Mus musculus (Mouse), UniProt P49769); assay: Cell-based activity assay, N2A cells stably over-expressing APP
Method: as §1

γ-secretase [5] = molecular target: T1, γ-secretase; assay: Extended exo-cell γ-secretase assay, HeLa cells; format: cell-based
Method: as §1, with “In the cell-based assay, N2A mouse neuroblastoma cells that stably overexpress amyloid precursor protein were incubated with γ-secretase inhibitors in a final concentration of 1% DMSO for 24 hrs. Following incubation, the supernatant was removed from the cells and assayed for Aβ40, the cleaved APP product, using ruthenylated G2-10* antibody as well as biotinylated 4G8 antibody.” left out
The exo-cell assay was adapted to monitor real-time γ-secretase activity and inhibition over extended times of pretreatment regimens. […] This modified, extended treatment exo-cell assay is capable of quantifying remaining γ-secretase activity following drug treatment on virtually any cell type. The IC50 values for Compound E and GSI-34 were calculated using the extended exo-cell assay (Table 3 and FIG. 15d). […]

## CC(NC(=O)Cc1cc(F)cc(F)c1)C(=O)NC1N=C(c2ccccc2)c2ccccc2N(C)C1=O (stereo not shown) [Compound E]
γ-secretase [1]
  IC50: 1.2 nM
A20 mouse lymphoma cells
  inhibition of cellular proliferation: able to inhibit cellular proliferation
γ-secretase [2]; ECL detection, read-out: Exo-Cell (nM), IC50
  IC50: 3.8 nM
γ-secretase [2]; IC50, exo-cell assay, HTRF detection
  IC50: 5.4 nM
γ-secretase [2]; read-out: Exo-Cell (nM), IC50, ECL detection
  IC50: 3.8 nM
γ-secretase [3]
  block of photo-crosslinking of PS1-CTF and PS1-NTF by Aβ17-23BPA20-biotin: completely blocked
γ-secretase [4]; 24 hrs, Aβ40; read-out: Cell-based (nM), IC50
  IC50: 4.6 nM
γ-secretase [4]; read-out: Cell-based (nM), IC50; 24 hrs, Aβ40
  IC50: 4.6 nM
γ-secretase [5]; 24 hrs pretreatment, read-out: Extended Exo-Cell (nM), IC50
  IC50: 2.8 nM
γ-secretase [5]; Extended Exo-Cell (nM), IC50, 24 hrs pretreatment
  IC50: 2.83 nM
